Test results from patent US11021457B2, “Class of isoindolone-imide ring-1,3-dione-2-ene compounds, composition and use thereof” (WIGEN BIOMEDICINE TECHNOLOGY (SHANGHAI) CO., LTD., priority 2017, dated 2021).

How the values were obtained:
Assay type in all cases: cell-based
A549 = experiment: Inhibition of tumor cell proliferation, CellTiter-Glo, A549; details: compound concentration 50 μM, 72 hours; for cell survival rate (% of control) at 50 µM: Homo sapiens, A549, read-out: Inhibitory activity against proliferation (cell survival rate) A549
In short: (§1)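 Activity is graded from survival at 50 μM: + for 60 to under 90%, ++ for over 30 to 60%, +++ for 30% or less. Survival was measured luminescently (CellTiter-Glo) 72 h after dosing, relative to untreated and blank wells; 2000-10000 cells/well, 37° C, 5% CO2.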

MDA-MB-453 = experiment: Inhibition of tumor cell proliferation, CellTiter-Glo, MDA-MB-453; details: compound concentration 50 μM, 72 hours; for cell survival rate (%) at 50 µM: Homo sapiens, MDA-MB-453, read-out: Inhibitory activity against proliferation (cell survival rate) MDA-MB-453
In short: as §1

BxPC-3 = experiment: Inhibition of tumor cell proliferation, CellTiter-Glo, BxPC-3; details: compound concentration 50 μM, 72 hours; for cell survival rate (%) at 50 µM: Homo sapiens, BXPC-3, read-out: Inhibitory activity against proliferation (cell survival rate) BxPC-3
In short: as §1

SU-DHL6 = experiment: Inhibition of tumor cell proliferation, CellTiter-Glo, SU-DHL6; details: compound concentration 50 μM, 72 hours; for cell survival rate (% of control) at 50 µM: Homo sapiens, SU-DHL-6, read-out: Inhibitory activity against proliferation (cell survival rate) SU-DHL6
In short: as §1

K562 = experiment: Inhibition of tumor cell proliferation, CellTiter-Glo, K562; details: compound concentration 50 μM, 72 hours; for cell survival rate (%) at 50 µM: Homo sapiens, K562, read-out: Inhibitory activity against proliferation (cell survival rate) K562
In short: as §1

RPMI-8226 = experiment: Inhibition of tumor cell proliferation, CellTiter-Glo, RPMI-8226; details: compound concentration 50 μM, 72 hours; for cell survival rate (% of control) at 50 µM: Homo sapiens, RPMI-8226, read-out: Inhibitory activity against proliferation (cell survival rate) RPMI-8226
In short: as §1

SMILES | Inhibitory activity against proliferation (cell survival rate) A549 (A549) | Inhibitory activity against proliferation (cell survival rate) MDA-MB-453 (MDA-MB-453) | Inhibitory activity against proliferation (cell survival rate) BxPC-3 (BxPC-3) | Inhibitory activity against proliferation (cell survival rate) SU-DHL6 (SU-DHL6) | Inhibitory activity against proliferation (cell survival rate) K562 (K562) | Inhibitory activity against proliferation (cell survival rate) RPMI-8226 (RPMI-8226) | cell survival rate (% of control) at 50 µM (A549) [%] | cell survival rate (%) at 50 µM (MDA-MB-453) [%] | cell survival rate (%) at 50 µM (BxPC-3) [%] | cell survival rate (% of control) at 50 µM (SU-DHL6) [%] | cell survival rate (%) at 50 µM (K562) [%] | cell survival rate (% of control) at 50 µM (RPMI-8226) [%]
Nc1cccc2c1CN(C1CCC(=O)N(C(=O)N3CCN(CCNC=C4C(=O)CC(c5ccccc5)CC4=O)CC3)C1=O)C2=O (stereo not drawn) [Compound 100] | +++ (survival rate (%)≤30) | ++ (30<survival rate (%)≤60) | ++ (30<survival rate (%)≤60) | ++ (30<survival rate (%)≤60) | +++ (survival rate (%)≤30) | + (60≤survival rate (%)<90) |  |  |  |  |  | 
O=C1CC(c2ccccc2)CC(=O)C1=CNCCN1CCC(C(=O)N2C(=O)CCC(N3C(=O)c4ccccc4C3=O)C2=O)CC1 (stereo not drawn) [Compound 102] | +++ (survival rate (%)≤30) | +++ (survival rate (%)≤30) | + (60≤survival rate (%)<90) | ++ (30<survival rate (%)≤60) | +++ (survival rate (%)≤30) | +++ (survival rate (%)≤30) |  |  |  |  |  | 
O=C1CC(c2ccccc2)CC(=O)C1=CNCCN1CCN(CCOC(=O)N2C(=O)CCC(N3C(=O)c4ccccc4C3=O)C2=O)CC1 (stereo not drawn) [Compound 103] | +++ (survival rate (%)≤30) | +++ (survival rate (%)≤30) | + (60≤survival rate (%)<90) | +++ (survival rate (%)≤30) | + (60≤survival rate (%)<90) | + (60≤survival rate (%)<90) |  |  |  |  |  | 
O=C1CCC(N2C(=O)c3cccc(OC(=O)OCCOCCN4CCN(CCNC=C5C(=O)CC(c6ccccc6)CC5=O)CC4)c3C2=O)C(=O)N1 (stereo not drawn) [Compound 104] | +++ (survival rate (%)≤30) | +++ (survival rate (%)≤30) | ++ (30<survival rate (%)≤60) | +++ (survival rate (%)≤30) | +++ (survival rate (%)≤30) | +++ (survival rate (%)≤30) |  |  |  |  |  | 
O=C1CCC(N2C(=O)c3cccc(OCC(=O)N4CCN(CCNC=C5C(=O)CC(c6ccccc6)CC5=O)CC4)c3C2=O)C(=O)N1 (stereo not drawn) [Compound 105] | +++ (survival rate (%)≤30) | ++ (30<survival rate (%)≤60) | ++ (30<survival rate (%)≤60) | + (60≤survival rate (%)<90) | + (60≤survival rate (%)<90) | + (60≤survival rate (%)<90) |  |  |  |  |  | 
O=C1CCC(N2C(=O)c3cccc(OCCN4CCN(CCNC=C5C(=O)CC(c6ccccc6)CC5=O)CC4)c3C2=O)C(=O)N1 (stereo not drawn) [Compound 106] | +++ (survival rate (%)≤30) | ++ (30<survival rate (%)≤60) | ++ (30<survival rate (%)≤60) | + (60≤survival rate (%)<90) | + (60≤survival rate (%)<90) | + (60≤survival rate (%)<90) |  |  |  |  |  | 
O=C1CCC(N2Cc3c(NCCN4CCN(CCNC=C5C(=O)CC(c6ccccc6)CC5=O)CC4)cccc3C2=O)C(=O)N1 (stereo not drawn) [Compound 107] | +++ (survival rate (%)≤30) | ++ (30<survival rate (%)≤60) | + (60≤survival rate (%)<90) | + (60≤survival rate (%)<90) | +++ (survival rate (%)≤30) | +++ (survival rate (%)≤30) |  |  |  |  |  | 
O=C1CCC(N2C(=O)c3cccc(NCCN4CCN(CCNC=C5C(=O)CC(c6ccccc6)CC5=O)CC4)c3C2=O)C(=O)N1 (stereo not drawn) [Compound 109] | ++ (30<survival rate (%)≤60) | + (60≤survival rate (%)<90) | ++ (30<survival rate (%)≤60) | + (60≤survival rate (%)<90) | ++ (30<survival rate (%)≤60) | +++ (survival rate (%)≤30) |  |  |  |  |  | 
COCCOCCOc1ccccc1C1CC(=O)C(=CNc2cccc3c2CN(C2CCC(=O)NC2=O)C3=O)C(=O)C1 (stereo not drawn) [Compound 110] | ++ (30<survival rate (%)≤60) | + (60≤survival rate (%)<90) | ++ (30<survival rate (%)≤60) | + (60≤survival rate (%)<90) | ++ (30<survival rate (%)≤60) | ++ (30<survival rate (%)≤60) |  |  |  |  |  | 
O=C1CCC(N2Cc3c(NC=C4C(=O)CC(c5nccs5)CC4=O)cccc3C2=O)C(=O)N1 (stereo not drawn) [Compound 111] |  |  |  |  |  |  | 60 to 90 | ≤ 30 | 60 to 90 | ≤ 30 | ≤ 30 | ≤ 30
O=C1CCC(N2Cc3c(N/C=C4\C(=O)CC(c5ccccc5)OC4=O)cccc3C2=O)C(=O)N1 (stereo not drawn) [Compound 112] |  |  |  |  |  |  | 60 to 90 | 30 to 60 | 30 to 60 | 60 to 90 | 30 to 60 | 30 to 60
O=C1CCC(N2Cc3c(NC=C4C(=O)NC(c5ccccc5)NC4=O)cccc3C2=O)C(=O)N1 (stereo not drawn) [Compound 115] |  |  |  |  |  |  | 30 to 60 | ≤ 30 | 60 to 90 | 30 to 60 | 30 to 60 | 60 to 90
CC(C)Cn1cccc1C1CC(=O)C(=CNc2cccc3c2CN(C2CCC(=O)NC2=O)C3=O)C(=O)C1 (stereo not drawn) [Compound 116] | ++ (30<survival rate (%)≤60) | ++ (30<survival rate (%)≤60) | ++ (30<survival rate (%)≤60) | + (60≤survival rate (%)<90) | ++ (30<survival rate (%)≤60) | ++ (30<survival rate (%)≤60) |  |  |  |  |  | 
O=C1CCC(N2Cc3c(NC=C4C(=O)CC(c5ccc(-c6ccncc6)cc5)CC4=O)cccc3C2=O)C(=O)N1 (stereo not drawn) [Compound 117] | + (60≤survival rate (%)<90) | + (60≤survival rate (%)<90) | + (60≤survival rate (%)<90) | + (60≤survival rate (%)<90) | ++ (30<survival rate (%)≤60) | +++ (survival rate (%)≤30) |  |  |  |  |  | 
O=C1CCC(N2Cc3c(NC=C4C(=O)CC(COc5ccccc5)CC4=O)cccc3C2=O)C(=O)N1 (stereo not drawn) [Compound 118] | + (60≤survival rate (%)<90) | + (60≤survival rate (%)<90) | + (60≤survival rate (%)<90) | + (60≤survival rate (%)<90) | ++ (30<survival rate (%)≤60) | + (60≤survival rate (%)<90) |  |  |  |  |  | 
